According to patent US3956510A, “Certain mixed antibacterials” (priority 1974, dated 1976):

Tests used:
Pseudomonas aeruginosa [1] = experiment: bacteriostatic activity / minimum inhibitory concentration against Pseudomonas aeruginosa; type: cell-based
Pseudomonas aeruginosa [2] = conditions: alone; is reported; cited from earlier work
bacteria = conditions: cited from earlier work

For Oc1cc(Cl)ccc1Oc1ccc(Cl)cc1Cl [2,4,4'-trichloro-2'-hydroxydiphenyl ether], the “activity in the presence of a surfactant” value (Pseudomonas aeruginosa [1]; in the presence of a surfactant such as soap) is given as “no practical activity is demonstrable” and the minimum inhibitory concentration (Pseudomonas aeruginosa [2]) is given as “greater than 300 ppm”.
In the case of benzalkonium chloride, the “bactericidal effect on dried bacteria coated with a greasy film” value (bacteria; dried bacteria coated with a greasy film, Rahm 1946) is given as “can survive many hours of contact” and the bactericidal effect (bacteria; ordinarily) is given as “ordinarily kills bacteria”.
O=C(Nc1ccc(Br)cc1)c1cc(Br)cc(Br)c1O [3,4',5-tribromo salicylanilide] showed a bacteriostatic activity (Pseudomonas aeruginosa [1]; alone, under the most ideal conditions) of 75 ppm and a bacteriostatic activity (Pseudomonas aeruginosa [1]; with 2% soap, based on active ingredient) of 160 ppm.
